The results in this text go back to PubChem BioAssay (NCI).

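In this assay, cells in 96-well plates receive the compound at five concentrations for 48 hours. Endpoints are linearly interpolated between the surrounding concentrations. GI50 is the concentration that inhibits growth by half. TGI: concentration producing complete growth inhibition.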 Where only a bound is given, the exact number is not on record here.

Among the test systems are KM12 colon; SW-620 colon; LOX IMVI melanoma; HL-60(TB) leukemia; A549 NSCLC; M14 melanoma; OVCAR-4 ovarian; HT29 colon; OVCAR-3 ovarian; SF-539 CNS; SNB-75 CNS; HCC-2998 colon; UACC-257 melanoma; MCF7 breast; SK-OV-3 ovarian; HOP-92 NSCLC; A498 renal.
Assay in all cases: DTP human tumour cell line panel, 48 h

On to `CCCN(CCC)C1=Nc2ccccc2-n2cnnc2C1`, for which the TGI with KM12 colon, in the experiment with SW-620 colon, in the experiment with LOX IMVI melanoma, in the experiment on HL-60(TB) leukemia, with A549 NSCLC and with M14 melanoma was > 100 µM each time. The TGI with OVCAR-4 ovarian, with HT29 colon, with OVCAR-3 ovarian and with SF-539 CNS was > 100 µM throughout.

With `N#Cc1c(N2CCN(c3ccc([N+](=O)[O-])cc3)CC2)[n+](=O)c2ccccc2n1[O-]`, the TGI in the experiment on KM12 colon, in the experiment with SNB-75 CNS, in the experiment with SW-620 colon, in the experiment with LOX IMVI melanoma, in the experiment on A549 NSCLC and with M14 melanoma was > 100 µM each time. Also, the TGI in the experiment on HCC-2998 colon, in the experiment on UACC-257 melanoma, with OVCAR-4 ovarian, in the experiment on HT29 colon, in the experiment on MCF7 breast and in the experiment with OVCAR-3 ovarian was > 100 µM throughout. Further, the TGI with SF-539 CNS and in the experiment on SK-OV-3 ovarian was > 100 µM throughout.

In the case of `O=C1/C(=C/c2ccc(Cl)cc2)CSC/C1=C\c1ccc(Cl)cc1`, the total growth inhibition concentration (TGI) (in general, the concentration giving total growth inhibition) was found to be 4.47 µM in the experiment on KM12 colon; 13.4 µM in the experiment with SW-620 colon; 5.3 µM in the experiment on LOX IMVI melanoma; 3.69 µM in the experiment with HL-60(TB) leukemia; 10.1 µM with A549 NSCLC; 3.92 µM with M14 melanoma. Also, the TGI came out at 4.09 µM with HCC-2998 colon; 5.08 µM in the experiment with UACC-257 melanoma; 14.1 µM with OVCAR-4 ovarian; 4.81 µM with HT29 colon; 43.2 µM with HOP-92 NSCLC; 13.1 µM with MCF7 breast. The TGI with OVCAR-3 ovarian stood at 8.11 µM; with SF-539 CNS, 9.26 µM; in the experiment with SK-OV-3 ovarian, 16.5 µM.

Consider `COC(=O)C1(C)NCCc2c1[nH]c1ccccc21` (configuration not stated), for which the TGI in the experiment with KM12 colon, in the experiment on SNB-75 CNS, in the experiment with SW-620 colon, with A498 renal, in the experiment with A549 NSCLC and with M14 melanoma was > 100 µM each time. The TGI in the experiment with HCC-2998 colon, in the experiment with OVCAR-4 ovarian, with HT29 colon, with HOP-92 NSCLC, in the experiment on OVCAR-3 ovarian and in the experiment on SF-539 CNS was > 100 µM each time. Further, the TGI in the experiment with SK-OV-3 ovarian was > 100 µM.

On to `COc1ccc(-c2cc(=O)c3c(O)cc(O)cc3o2)c(OC)c1OC`, for which the TGI in the experiment on KM12 colon, in the experiment on SNB-75 CNS, in the experiment with SW-620 colon, in the experiment with LOX IMVI melanoma, in the experiment with HL-60(TB) leukemia and in the experiment on A549 NSCLC was > 100 µM each time. Further, the TGI with M14 melanoma, in the experiment with HCC-2998 colon, in the experiment on UACC-257 melanoma, in the experiment with OVCAR-4 ovarian, in the experiment with HT29 colon and in the experiment with HOP-92 NSCLC was > 100 µM each time. In addition, the TGI in the experiment with OVCAR-3 ovarian, with SF-539 CNS and with SK-OV-3 ovarian was > 100 µM each time.

On to `COC(=O)C1=C(CCC[C@H](C)O[Si](C)(C)C(C)(C)C)NC(=O)N2[C@@H](CCO)CC[C@H]12`, for which the TGI with KM12 colon stood at 51.2 µM; in the experiment on SNB-75 CNS, 30.5 µM; in the experiment with SW-620 colon it was 42.5 µM; with LOX IMVI melanoma, 32.7 µM; with A498 renal, 31.1 µM; in the experiment with A549 NSCLC, 25.6 µM. The TGI turned out to be 30.9 µM with M14 melanoma; 28.9 µM in the experiment on UACC-257 melanoma; 38.2 µM in the experiment on OVCAR-4 ovarian; 29.8 µM in the experiment on HT29 colon; 28.4 µM in the experiment with HOP-92 NSCLC; 27.9 µM with OVCAR-3 ovarian. The TGI in the experiment with SF-539 CNS stood at 31.6 µM; in the experiment on SK-OV-3 ovarian it was 30.4 µM.

Take `COc1cc(C=O)cc(O)c1O`: the TGI with KM12 colon, in the experiment on SNB-75 CNS, in the experiment on SW-620 colon, with LOX IMVI melanoma, with HL-60(TB) leukemia and with A549 NSCLC was > 100 µM each time. Also, the TGI in the experiment on M14 melanoma, with HCC-2998 colon, in the experiment on UACC-257 melanoma, in the experiment on HT29 colon, in the experiment with OVCAR-3 ovarian and in the experiment with SF-539 CNS was > 100 µM throughout. The TGI with SK-OV-3 ovarian was > 100 µM.

`CCCCC(=O)Nc1ccc2c(C)cc(-c3ccc(-c4cc(-c5ccc(C)cc5)cc(-c5ccc(-c6cc(C)c7ccc(NC(=O)CCCC)nc7n6)cc5)n4)cc3)nc2n1`: the TGI with KM12 colon, in the experiment with SNB-75 CNS, in the experiment with A498 renal, in the experiment on A549 NSCLC, with M14 melanoma and with HCC-2998 colon was > 100 µM in each case. Moreover, the TGI with UACC-257 melanoma, with OVCAR-4 ovarian, in the experiment with HOP-92 NSCLC, in the experiment with MCF7 breast, with OVCAR-3 ovarian and with SK-OV-3 ovarian was > 100 µM each time.

`[N-]=[N+]=CC(=O)CCC(=O)N(c1ccccc1)c1ccccc1`: the TGI in the experiment with KM12 colon, with SNB-75 CNS, in the experiment on SW-620 colon, with LOX IMVI melanoma, in the experiment on A498 renal and with HL-60(TB) leukemia was > 10 µM throughout. In addition, the TGI in the experiment with A549 NSCLC, in the experiment on M14 melanoma, in the experiment with UACC-257 melanoma, in the experiment with HT29 colon, in the experiment on HOP-92 NSCLC and with MCF7 breast was > 10 µM throughout. The TGI in the experiment on OVCAR-3 ovarian, in the experiment with SF-539 CNS and in the experiment with SK-OV-3 ovarian was > 10 µM each time.

For `O=c1c([OH2+])c(-c2ccc(O)cc2[O-])oc2cc(O)cc([O-])c12.O=c1c([OH2+])c(-c2ccc(O)cc2[O-])oc2cc(O)cc([O-])c12.[Ti+4]`, the TGI with KM12 colon, with SNB-75 CNS, in the experiment on SW-620 colon, in the experiment with LOX IMVI melanoma, in the experiment with A498 renal and in the experiment with HL-60(TB) leukemia was > 100 µM each time. Also, the TGI in the experiment with A549 NSCLC, with M14 melanoma, in the experiment with UACC-257 melanoma, with OVCAR-4 ovarian, in the experiment on HT29 colon and in the experiment with OVCAR-3 ovarian was > 100 µM throughout. For the same compound, the TGI in the experiment with SF-539 CNS and in the experiment with SK-OV-3 ovarian was > 100 µM each time. For the same compound, the GI50 in the experiment on A498 renal and in the experiment with SK-OV-3 ovarian was > 100 µM throughout.
